Experimental data reported in patent US5358712A, “Radiopharmaceutical agents for the detection of Alzheimer's disease” (Regents of the University of Minnesota, priority 1993, dated 1994).

Legend:
[1] = tested on: vesamicol receptor; test: Blocking experiments: inhibition of radiotracer accumulation in the rat by coadministered compound; assay type: in vivo, rat (male Wistar); conditions: for effect of coadministered vesamicol on accumulation (in words) / Brain: Blood Ratio / Heart: Blood Ratio / radioactivity in blood / radioactivity in brain / radioactivity in heart / radioactivity in kidney / radioactivity in liver / radioactivity in lung / radioactivity in muscle / radioactivity in spleen: rat; for Brain: Blood Ratio / Heart: Blood Ratio / radioactivity in blood / radioactivity in brain / radioactivity in heart / radioactivity in kidney / radioactivity in liver / radioactivity in lung / radioactivity in muscle / radioactivity in spleen: iv, 60 min
Experimental: *Animals in group 1 received an iv injection of (+)4-[^125 l]HIPP
only. For groups 2, 3, and 4, the radiotracer was coadministered with the
hydrochlorides of (+)7 (0.53 mg/kg), (-)7 (0.53 mg/kg) and vesamicol (0.3
Four groups of male Wistar rats (n=3) were used in these experiments. All animals received an iv dose of 8-10 μCi of the radiotracer in 0.1 ml of 50% aq. ethanol. Additionally, in groups 2, 3 and 4, the radiotracer was coadministered with (+)-HBrPP.HCl(1.3 μmol/kg), (-)-HBrPP.HCl(1.3 μmol/kg) and (dl)-vesamicol hydrochloride (1.1 μmol/kg), respectively. At 60 min. post-injection, blood was collected by cardiac puncture and the animals sacrificed as described above. The data was analyzed as outlined above.
NOTE: The dose of radiotracer injected was 5-7 mCi. Group I was the
control, injected with the radiotracer only. Group II included the
simultaneous injection of "cold"(dl)3-HIPP (HCl) (0.53 mg/kg). Group III
included the simultaneous injection of (dl) vesamicol (HCl) (0.31 mg/kg).
All rats were sacrificed at one hour postinjection.
NOTE: Group I was the control, injected with the radiotracer only. Group
II included the simultaneous injection of "cold"(dl)3-HIPP (HCl) (0.53
mg/kg). Group III included the simultaneous injection of (dl) vesamicol
hydrochloride (0.31 mg/kg). The dose of radiotracer was 8-9 μCi. All
rats were sacrificed at one hour postinjection.
NOTE: Group I received (+)[^125 l]13 only. Group II received the (+)
radiotracer coinjected with 0.31 mg/kg (dl)vesamicol hydrochloride. Group
III received (-)[^125 l]13 only. Group IV received the (-) radiotrace
coinjected with 0.31 mg/kg (dl)vesamicol hydrochloride. All animals were
sacrificed at one hour postinjection. The dose of radiotracer injected pe

[2] = Tissue distribution (biodistribution) of radioiodinated compound in the rat; conditions: for tissue uptake at 5 min / tissue uptake at 0.5 h / tissue uptake at 1 h / tissue uptake at 3 h / decrease of concentration in the brain / initial accumulation in the rat brain / Brain: Blood Ratio / Heart: Blood Ratio / radioactivity in brain / radioactivity in blood / radioactivity in heart / radioactivity in kidney / radioactivity in liver / radioactivity in lung / radioactivity in muscle / radioactivity in spleen: rat; for tissue uptake at 5 min / tissue uptake at 0.5 h / tissue uptake at 1 h / tissue uptake at 3 h / Brain: Blood Ratio / Heart: Blood Ratio / radioactivity in brain / radioactivity in blood / radioactivity in heart / radioactivity in kidney / radioactivity in liver / radioactivity in lung / radioactivity in muscle / radioactivity in spleen: iv; for tissue uptake at 0.5 h: 30 min
Experimental: Four groups of male Wistar rats (with four animals per group) weighing 200-350 g were used in these experiments. Each animal received, while under ether anesthesia, an intravenous injection of the radiotracer (10-20 μCi) dissolved in 0.1 ml of 50% aqueous ethanol. At 5, 30, and 60 and 180 min. post-injection, blood was collected from the anesthetized animals by cardiac puncture, and the animal was immediately sacrificed by cardiectomy. The organs and tissues of interest were harvested, transferred to preweighed tubes and counted in a Beckman gamma counter. The tubes were subsequently reweighed to give the weight of the corresponding tissues. Preweighed tubes containing ^1 -ml samples of a 1:100 dilution of the injection dose were also counted and used as reference for calculating the tissue accumulation of radioactivity. The accumulation of radiotracer was expressed as a percentage of injected dose per gram of tissue.

[3] = + (dl)-vesamicol HCl 0.3 (Table 3) or 0.31 mg/kg
[4] = + cold (dl)3-HIPP HCl 0.53 mg/kg

Question: Which “vesamicol receptor ligand (in words)” value ([1]; conclusion from blocking and regional distribution in vivo) does the source give for `OC(Cc1ccc(I)cc1)CN1CCC(c2ccccc2)CC1` (racemic) [Compound 5, (dl)-2-Hydroxy-3-(4-iodophenyl)-1-(4-phenylpiperidyl)propane] here?
Answer: potent ligand

Question: And the “effect of coadministered vesamicol on accumulation (in words)” value [1]?
Answer: can be blocked by vesamicol

Question: What about the “brain retention (in words)” value ([2]; rodent (and monkey)) of the same compound?
Answer: prolonged brain retention

Question: What does the source list for `OC(Cc1ccc([125I])cc1)CN1CCC(c2ccccc2)CC1` (single isomer, unassigned; (+)) [(+)-4-[^125 l]HIPP, 2-Hydroxy-3-(4-iodophenyl)-1-(4-phenylpiperidyl)propane]?
Answer: tissue uptake at 5 min ([2]; blood, radioactivity in blood, 5 min): 0.08 %ID/g; tissue uptake at 0.5 h ([2]; blood, radioactivity in blood): 0.04 %ID/g; tissue uptake at 1 h ([2]; blood, radioactivity in blood, 60 min): 0.03 %ID/g; tissue uptake at 5 min ([2]; brain, radioactivity in brain, 5 min): 1.2 %ID/g; tissue uptake at 0.5 h ([2]; brain, radioactivity in brain): 1.22 %ID/g; tissue uptake at 1 h ([2]; brain, radioactivity in brain, 60 min): 1.23 %ID/g; tissue uptake at 3 h ([2]; brain, radioactivity in brain, 180 min): 1.35 %ID/g; tissue uptake at 5 min ([2]; heart, radioactivity in heart, 5 min): 1.8 %ID/g; tissue uptake at 0.5 h ([2]; heart, radioactivity in heart): 1.23 %ID/g; tissue uptake at 1 h ([2]; heart, radioactivity in heart, 60 min): 1.12 %ID/g; tissue uptake at 3 h ([2]; heart, radioactivity in heart, 180 min): 0.84 %ID/g; tissue uptake at 5 min ([2]; kidney, radioactivity in kidney, 5 min): 2.84 %ID/g; tissue uptake at 0.5 h ([2]; kidney, radioactivity in kidney): 2.42 %ID/g; tissue uptake at 1 h ([2]; kidney, radioactivity in kidney, 60 min): 2.3 %ID/g; tissue uptake at 3 h ([2]; kidney, radioactivity in kidney, 180 min): 1.81 %ID/g; tissue uptake at 5 min ([2]; liver, radioactivity in liver, 5 min): 1.58 %ID/g; tissue uptake at 0.5 h ([2]; liver, radioactivity in liver): 2.55 %ID/g; tissue uptake at 1 h ([2]; liver, radioactivity in liver, 60 min): 2.43 %ID/g; tissue uptake at 3 h ([2]; liver, radioactivity in liver, 180 min): 2.38 %ID/g; tissue uptake at 5 min ([2]; lung, radioactivity in lung, 5 min): 11.5 %ID/g; tissue uptake at 0.5 h ([2]; lung, radioactivity in lung): 5.59 %ID/g; tissue uptake at 1 h ([2]; lung, radioactivity in lung, 60 min): 4.75 %ID/g; tissue uptake at 3 h ([2]; lung, radioactivity in lung, 180 min): 3.74 %ID/g; tissue uptake at 5 min ([2]; muscle, radioactivity in muscle, 5 min): 0.24 %ID/g; tissue uptake at 0.5 h ([2]; muscle, radioactivity in muscle): 0.25 %ID/g; tissue uptake at 1 h ([2]; muscle, radioactivity in muscle, 60 min): 0.19 %ID/g; tissue uptake at 3 h ([2]; muscle, radioactivity in muscle, 180 min): 0.24 %ID/g; tissue uptake at 5 min ([2]; spleen, radioactivity in spleen, 5 min): 0.71 %ID/g; tissue uptake at 0.5 h ([2]; spleen, radioactivity in spleen): 1.28 %ID/g; tissue uptake at 1 h ([2]; spleen, radioactivity in spleen, 60 min): 1.23 %ID/g; tissue uptake at 3 h ([2]; spleen, radioactivity in spleen, 180 min): 1.39 %ID/g

Question: Which results are given for `OC(Cc1cccc([125I])c1)CN1CCC(c2ccccc2)CC1` (single isomer, unassigned; (+)) [(+)-[^125 l]12] [2-Hydroxyl-3-(3-iodophenyl)-1-[1-(4-phenylpiperidinyl)]propane]?
Answer: effect of coadministered vesamicol on accumulation (in words) [1]: inhibited; Brain: Blood Ratio [1, 3]: 2.14; Heart: Blood Ratio [1, 3]: 1.10; Brain: Blood Ratio [1, 4]: 1.92; Heart: Blood Ratio [1, 4]: 1.16; Brain: Blood Ratio ([1]; radiotracer only (control)): 8.49; Heart: Blood Ratio ([1]; radiotracer only (control)): 3.96; decrease of concentration in the brain ([2]; 1 hour post-injection vs initial, listed as (+)-[^125 I]12): 20%; decrease of concentration in the brain ([2]; 3 hours post-injection vs initial, listed as (+)-[^125 I]12): 54%; initial accumulation in the rat brain ([2]; listed as (+)-[^125 I]12): 2.08 % of the injected dose; Brain: Blood Ratio ([2]; 5 min): 13.1; Heart: Blood Ratio ([2]; 5 min): 16.4; Brain: Blood Ratio ([2]; 60 min): 9.2; Heart: Blood Ratio ([2]; 60 min): 4.2; Brain: Blood Ratio ([2]; 180 min): 7.2; Heart: Blood Ratio ([2]; 180 min): 2.1; radioactivity in brain ([2]; 180 min): 0.56 % dose/g

Question: Which results are given for `OC(Cc1cccc([125I])c1)CN1CCC(c2ccccc2)CC1` (single isomer, unassigned; (-)) [(-)-[^125 l]12] [2-Hydroxyl-3-(3-iodophenyl)-1-[1-(4-phenylpiperidinyl)]propane]?
Answer: effect of coadministered vesamicol on accumulation (in words) [1]: inhibited; Brain: Blood Ratio [1, 3]: 1.40; Heart: Blood Ratio [1, 3]: 0.95; radioactivity in blood [1, 3]: 0.14 % dose/g of tissue; radioactivity in brain [1, 3]: 0.20 % dose/g of tissue; radioactivity in heart [1, 3]: 0.14 % dose/g of tissue; radioactivity in kidney [1, 3]: 0.46 % dose/g of tissue; radioactivity in liver [1, 3]: 0.81 % dose/g of tissue; radioactivity in lung [1, 3]: 0.73 % dose/g of tissue; radioactivity in muscle [1, 3]: 0.13 % dose/g of tissue; radioactivity in spleen [1, 3]: 0.50 % dose/g of tissue; radioactivity in blood [1, 4]: 0.13 % dose/g of tissue; Brain: Blood Ratio [1, 4]: 1.19; Heart: Blood Ratio [1, 4]: 0.87; radioactivity in brain [1, 4]: 0.15 % dose/g of tissue; radioactivity in heart [1, 4]: 0.11 % dose/g of tissue; radioactivity in kidney [1, 4]: 0.46 % dose/g of tissue; radioactivity in liver [1, 4]: 0.63 % dose/g of tissue; radioactivity in lung [1, 4]: 0.57 % dose/g of tissue; radioactivity in muscle [1, 4]: 0.10 % dose/g of tissue; radioactivity in spleen [1, 4]: 0.36 % dose/g of tissue; Brain: Blood Ratio ([1]; radiotracer only (control)): 5.08; Heart: Blood Ratio ([1]; radiotracer only (control)): 1.57; radioactivity in blood ([1]; radiotracer only (control)): 0.13 % dose/g of tissue; radioactivity in brain ([1]; radiotracer only (control)): 0.64 % dose/g of tissue; radioactivity in heart ([1]; radiotracer only (control)): 0.20 % dose/g of tissue; radioactivity in kidney ([1]; radiotracer only (control)): 0.98 % dose/g of tissue; radioactivity in liver ([1]; radiotracer only (control)): 0.86 % dose/g of tissue; radioactivity in lung ([1]; radiotracer only (control)): 0.92 % dose/g of tissue; radioactivity in muscle ([1]; radiotracer only (control)): 0.15 % dose/g of tissue; radioactivity in spleen ([1]; radiotracer only (control)): 0.83 % dose/g of tissue; decrease of concentration in the brain ([2]; 1 hour post-injection vs initial, listed as (-)-[^125 I]12): 43%; decrease of concentration in the brain ([2]; 3 hours post-injection vs initial, listed as (-)-[^125 I]12): 74%; initial accumulation in the rat brain ([2]; listed as (-)-[^125 I]12): 1.86 % of the injected dose; Brain: Blood Ratio ([2]; 5 min): 9.0; Heart: Blood Ratio ([2]; 5 min): 11.4; radioactivity in blood ([2]; 5 min): 0.11 % dose/g; radioactivity in brain ([2]; 5 min): 0.98 % dose/g; radioactivity in heart ([2]; 5 min): 1.26 % dose/g; radioactivity in kidney ([2]; 5 min): 2.46 % dose/g; radioactivity in liver ([2]; 5 min): 1.41 % dose/g; radioactivity in lung ([2]; 5 min): 8.94 % dose/g; radioactivity in muscle ([2]; 5 min): 0.36 % dose/g; radioactivity in spleen ([2]; 5 min): 0.66 % dose/g; Brain: Blood Ratio ([2]; 60 min): 5.1; Heart: Blood Ratio ([2]; 60 min): 1.9; radioactivity in blood ([2]; 60 min): 0.11 % dose/g; radioactivity in brain ([2]; 60 min): 0.56 % dose/g; radioactivity in heart ([2]; 60 min): 0.21 % dose/g; radioactivity in kidney ([2]; 60 min): 1.00 % dose/g; radioactivity in liver ([2]; 60 min): 1.04 % dose/g; radioactivity in lung ([2]; 60 min): 1.04 % dose/g; radioactivity in muscle ([2]; 60 min): 0.14 % dose/g; radioactivity in spleen ([2]; 60 min): 0.95 % dose/g; Brain: Blood Ratio ([2]; 180 min): 2.6; Heart: Blood Ratio ([2]; 180 min): 0.9; radioactivity in blood ([2]; 180 min): 0.11 % dose/g; radioactivity in brain ([2]; 180 min): 0.27 % dose/g; radioactivity in heart ([2]; 180 min): 0.10 % dose/g; radioactivity in kidney ([2]; 180 min): 0.59 % dose/g; radioactivity in liver ([2]; 180 min): 0.79 % dose/g; radioactivity in lung ([2]; 180 min): 0.46 % dose/g; radioactivity in muscle ([2]; 180 min): 0.08 % dose/g; radioactivity in spleen ([2]; 180 min): 0.44 % dose/g
